In patent US20200017495A1, “NOVEL HETEROCYCLIC COMPOUNDS AND THEIR USE IN PREVENTING OR TREATING BACTERIAL INFECTIONS” (priority 2017, published 2020):

Test system: Escherichia coli (ECO) isolates
Test: MIC of compounds alone and combined with antibacterials, broth microdilution (CLSI)
Format: cell-based
Procedure, shortened: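 Broth microdilution in cation-adjusted Mueller-Hinton broth, inoculum 5.10^5 CFU/mL, 16-20 h at 35° C in ambient air, on genotyped isolates. Compound MIC, alone or with an antibacterial, taken visually as lowest concentration preventing growth; antibacterial MIC determined at each compound concentration.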

With CC1(C)S[C@@H]2[C@H](NC(=O)[C@H](N)c3ccc(O)cc3)C(=O)N2[C@H]1C(=O)O [AMX, Amoxicillin] the “MIC ATB in combination” value (ECO UFR18, AF2 @ 8 μg/mL) was less than 0.25 µg/mL, the “MIC ATB in combination” value (ECO UFR19, AF2 @ 8 μg/mL) was less than 0.25 µg/mL and the “MIC ATB in combination” value (ECO UFR32, AF2 @ 8 μg/mL) was less than 0.25 µg/mL. For the same molecule, the “MIC ATB in combination” value (ECO UFR39, AF2 @ 8 μg/mL) was less than 0.25 µg/mL, the “MIC ATB in combination” value (ECO UFR41, AF2 @ 8 μg/mL) was less than 0.25 µg/mL and the “MIC ATB in combination” value (ECO UFR45, AF2 @ 8 μg/mL) was less than 0.25 µg/mL. For the same molecule, the “MIC ATB in combination” value (ECO UFR61O, AF2 @ 8 μg/mL) was 4 µg/mL, the “MIC ATB in combination” value (ECO UFR62, AF2 @ 8 μg/mL) was less than 0.25 µg/mL and the “MIC ATB in combination” value (ECO UFR74, AF2 @ 8 μg/mL) was less than 0.25 µg/mL. For the same molecule, the “MIC ATB in combination” value (ECO UFR86, AF2 @ 8 μg/mL) was 2 µg/mL, the “MIC ATB in combination” value (ECO UFR86, CLA @ 4 μg/mL) was 8 µg/mL and the “MIC ATB in combination” value (ECO UFR209, CLA @ 4 μg/mL) was 32 µg/mL. For the same molecule, the “MIC ATB in combination” value (ECO UFR210, CLA @ 4 μg/mL) was 8 µg/mL, the “MIC ATB in combination” value (ECO UFR211, CLA @ 4 μg/mL) was 8 µg/mL and the MIC (strain ECO 4133, genotype TEM-30, OXA-1) was greater than 256 µg/mL. The MIC (strain ECO 5302, genotype TEM-1, OXA-1) was greater than 256 µg/mL, the MIC (strain ECO 131119, genotype TEM-1, OXA-48) was greater than 1024 µg/mL and the MIC (strain ECO 180070, genotype TEM-1, CTX-M-15) was greater than 256 µg/mL. For the same molecule, the MIC (strain ECO 190314, genotype CTX-M-1) was greater than 256 µg/mL, the MIC (strain ECO 190317, genotype TEM-1, SHV-12, CTX-M-15, OXA-1) was greater than 1024 µg/mL and the MIC (strain ECO 190457, genotype CTX-M-15, OXA-1) was greater than 256 µg/mL. For the same molecule, the MIC (strain ECO 190549, genotype CTX-M-1) was greater than 256 µg/mL, the MIC (strain ECO 200159, genotype TEM-1, CTX-M-14) was greater than 256 µg/mL and the MIC (strain ECO 200259, genotype CTX-M-14) was greater than 256 µg/mL. It also gave an MIC (strain ECO 200344, genotype CTX-M-1) greater than 256 µg/mL, an MIC (strain ECO 260096, genotype CTX-M-132) greater than 256 µg/mL and an MIC (strain ECO 260304, genotype CTX-M-15) greater than 256 µg/mL. The MIC (strain ECO 260508, genotype TEM-1, CTX-M-15, OXA-1) was greater than 256 µg/mL, the MIC (strain ECO RGN238, genotype OXA-1) was greater than 1024 µg/mL and the MIC (strain ECO UFR15, genotype TEM-1, OXA-48) was greater than 256 µg/mL. The MIC (strain ECO UFR16, genotype TEM-1, CTX-M-15, OXA-1, OXA-48) was greater than 256 µg/mL, the MIC (strain ECO UFR17, genotype TEM-1, CTX-M-15, CMY-2, OXA-1, OXA-181) was greater than 256 µg/mL and the MIC (strain ECO UFR18, genotype CTX-M-15, OXA-204) was greater than 256 µg/mL. The MIC (strain ECO UFR19, genotype CTX-M-15, CMY-2, OXA-1, OXA-204) was greater than 256 µg/mL, the MIC (strain ECO UFR20, genotype SHV-1, CTX-M-15, OXA-1, OXA-232) was greater than 256 µg/mL and the MIC (strain ECO UFR32, genotype TEM-1, VEB-1, OXA-10) was greater than 256 µg/mL. The MIC (strain ECO UFR39, genotype CTX-M-15, NDM-1) was greater than 1024 µg/mL, the MIC (strain ECO UFR41, genotype TEM-1, CTX-M-15, CMY-2, OXA-1, NDM-4) was greater than 256 µg/mL and the MIC (strain ECO UFR45, genotype TEM-1, CMY-4, OXA-1, OXA-48, VIM-1) was greater than 256 µg/mL. For the same molecule, the MIC (strain ECO UFR52, genotype TEM-1, SHV-12, IMP-8) was greater than 256 µg/mL, the MIC (strain ECO UFR61O, genotype TEM-1, KPC-2) was greater than 256 µg/mL and the MIC (strain ECO UFR62, genotype TEM-1, CTX-M-9, KPC-2) was greater than 256 µg/mL. For the same molecule, the MIC (strain ECO UFR74, genotype SHV-1, DHA-1) was greater than 256 µg/mL, the MIC (strain ECO UFR86, genotype ompC-, ompF-) was 16 µg/mL and the MIC (strain ECO UFR174, genotype TEM-1, KPC-2, OXA-1) was greater than 128 µg/mL. The MIC (strain ECO UFR175, genotype TEM-1, KPC-2, OXA-9) was greater than 128 µg/mL, the MIC (strain ECO UFR176, genotype KPC-3, OXA-9*) was greater than 128 µg/mL and the MIC (strain ECO UFR177, genotype TEM-1, CTX-M-15, OXA-1, OXA-2, NDM-1, RmtC, antibiotic alone) was greater than 128 µg/mL. The MIC (strain ECO UFR178, genotype TEM-1, CTX-M-15, OXA-9, NDM-1, antibiotic alone) was greater than 128 µg/mL, the MIC (strain ECO UFR179, genotype TEM-1, SHV-12, CTX-M-15, NDM-1, antibiotic alone) was greater than 128 µg/mL and the MIC (strain ECO UFR180, genotype TEM-1, CMY-30, OXA-1, NDM-1, antibiotic alone) was greater than 128 µg/mL. It also gave an MIC (strain ECO UFR181, genotype TEM-1, CTX-M-15, NDM-5, antibiotic alone) greater than 128 µg/mL, an MIC (strain ECO UFR182, genotype CTX-M-15, OXA-1, NDM-6, antibiotic alone) greater than 128 µg/mL and an MIC (strain ECO UFR183, genotype CTX-M-15, OXA-1, NDM-7, antibiotic alone) greater than 128 µg/mL. It also gave an MIC (strain ECO UFR184, genotype CTX-M-15, CMY-4, OXA-1, OXA-204) greater than 128 µg/mL, an MIC (strain ECO UFR185, genotype OXA-48) greater than 128 µg/mL and an MIC (strain ECO UFR186, genotype TEM-1, CTX-M-14, OXA-48) greater than 128 µg/mL. The MIC (strain ECO UFR187, genotype CTX-M-15, OXA-48) was greater than 128 µg/mL, the MIC (strain ECO UFR189, genotype TEM-1, CTX-M-15, OXA-48) was greater than 128 µg/mL and the MIC (strain ECO UFR190, genotype CTX-M-24, OXA-48) was greater than 128 µg/mL. The MIC (strain ECO UFR191, genotype TEM-1, CTX-M-24, OXA-48) was greater than 128 µg/mL, the MIC (strain ECO UFR204, genotype TEM-1, CMY-4, OXA-48, VIM-1, antibiotic alone) was greater than 128 µg/mL and the MIC (strain ECO UFR205, genotype CTX-M-15, VIM-4, antibiotic alone) was greater than 128 µg/mL. For the same molecule, the MIC (strain ECO UFR206, genotype TEM-1, CTX-M-15, OXA-1, VIM-4, antibiotic alone) was greater than 128 µg/mL, the MIC (strain ECO UFR207, genotype CTX-M-15) was greater than 128 µg/mL and the MIC (strain ECO UFR208, genotype SHV-12) was greater than 128 µg/mL. It also gave an MIC (strain ECO UFR209, genotype TEM-1, CTX-M-15) greater than 128 µg/mL, an MIC (strain ECO UFR210, genotype SHV-12) greater than 128 µg/mL and an MIC (strain ECO UFR211, genotype TEM-24) greater than 128 µg/mL. For the same molecule, the MIC (strain ECO UFR212, genotype CMY-2) was greater than 128 µg/mL, the MIC (strain ECO UFR218, genotype TEM-1, SHV-1, CTX-M-15) was greater than 128 µg/mL and the MIC (strain ECO UFR252GO, genotype VIM-2, antibiotic alone) was greater than 128 µg/mL. It also gave an MIC (strain ECO UFR255, genotype NDM-1, antibiotic alone) greater than 128 µg/mL.
